Where a name gives a salt, the structure may show the parent alone. Read-outs that look alike come from different tables or passages of the source.
What was measured:
[1] = test system: vertebral blood flow and femoral blood flow; test: Test 1: Peripheral Vasodilating Effect; assay type: in vivo, Mongrel dogs; settings: 1 mg/kg i.v.; for Percentage of vertebral blood flow increase / Percentage of vertebral blood flow increase against percentage of femoral blood flow increase: anesthetized dogs, 5% aqueous tartaric acid solution, except compounds footnoted: (1) dimethylsulfoxide, (2) distilled water, (3) physiological saline
Description: Mongrel dogs of both sexes each weighing about 10 kg were anesthetized with sodium pentobarbital (35 mg/kg, i.v.). Artificial respiration was performed with room air. The vertebral blood flow and femoral blood flow were measured by an electromagnetic flowmeter (Nihon Koden, MF-27) with flow probes. The blood pressure and heart rate were measured at the same time. For intravenous administration of each compound (1 mg/kg), the cephalic vein was cannulated and the compound solution injected.

[2] = test system: platelets (ADP-induced coagulation); test: Test 2: Platelet Anti-coagulating Effect, ADP-induced coagulation; assay type: in vivo, Male Wistar rats; settings: Rattus norvegicus, 250 mg/kg oral, rats, 3 hours after administration, ADP 2.7 uM, read-out: Inhibition percentage, ADP (2.7 uM)
Description: (§1) Male Wistar rats each having a body weight of about 300 g were orally administered with the test compounds. With the lapse of 3 hours after administration of the compound, each rate was anesthetized with ether, and the blood was collected from its abdominal vein. […] The blood was centrifuged at 1,000 rpm for 10 minutes. The resultant platelet-rich plasma (PRP) was centrifuged for further 10 minutes at 3,000 rpm, thereby collecting a platelet-poor plasma (PPP).
(§2) ADP or collagen was added to the PRP obtained above to induce coagulation, and the thus coagulated platelets were measured by turbidimetry using a platelet aggregation tracer ("PAT-4A", tradename of Niko Kizai Kabushiki Kaisha, Japan). The coagulation inhibition percentage was determined by the following equation: [formula] A: Maximum percentage of coagulation when a compound was administered B: Maximum percentage of coagulation when physiological saline was administered

[3] = test system: platelets (collagen-induced coagulation); test: Test 2: Platelet Anti-coagulating Effect, collagen-induced coagulation; assay type: in vivo, Male Wistar rats; settings: Rattus norvegicus; for inhibition at 250 mg/kg: 250 mg/kg oral, collagen 17.4 ug/ml, read-out: Inhibition percentage, Collagen (17.4 ug/ml)
Description: as §1, §2

[4] = Test 3: Acute Toxicity, oral, rats; settings: rat, in vivo, 7 days observation
Description: (§3) Certain test compounds of the invention were administered orally to SD-strain female or male rats each having a body weight of 150 to 200 g of ddN-strain male mice each having a body weight of about 20 g.

[5] = Test 3: Acute Toxicity, oral, mice; settings: mouse, in vivo, 7 days observation
Description: as §3

[6] = 200 mg/kg oral, rats, 3 hours after administration, collagen 6.25 ug/ml, read-out: Inhibition percentage, Collagen (6.25 ug/ml)
[7] = rats, 3 hours after administration
[8] = footnote * of Table 1, dogs, in dimethylsulfoxide

Structure (SMILES)	Percentage of vertebral blood flow increase [1] [%]	Percentage of vertebral blood flow increase against percentage of femoral blood flow increase [1]	LD50 at 168 h [5] [mg/kg]	also measured
C[C@@H]([C@H](O)c1ccc(O)cc1)N1CCN(C(c2ccccc2)c2ccccc2)CC1 (relative stereo) [Inventive compound 2, dl-erythro-2-(4-Diphenylmethylpiperazinyl)-1-(4-hydroxyphenyl)propanol.1/2tartrate]	66	3.5		inhibition at 250 mg/kg [2]: 16%; inhibition at 200 mg/kg [3, 6]: 40%; inhibition at 250 mg/kg [3, 7]: 17%; LD50 at 168 h [4]: > 2000 mg/kg
C[C@@H]([C@@H](O)c1ccc(O)cc1)N1CCN(C(c2ccccc2)c2ccccc2)CC1 (relative stereo) [Inventive compound 3, dl-threo-2-(4-Diphenylmethylpiperazinyl)-1-(4-hydroxyphenyl)propanol.tartrate]	60	3.2		
C[C@@H]([C@@H](O)c1ccc(OCc2ccccc2)cc1)N1CCN(C(c2ccccc2)c2ccccc2)CC1 (relative stereo) [Inventive compound 6, dl-threo-1-(4-Benzyloxyphenyl)-2-(4-diphenylmethylpiperazinyl)propanol.dihydrochloride]	96	8.5		
CC(=O)Oc1ccccc1C(=O)O [Aspirin, reference compound]				inhibition at 200 mg/kg ([3]; read-out: inhibition against collagen): 99%
Oc1ccc(C(O)CN2CCN(C(c3ccccc3)c3ccccc3)CC2)cc1 (stereo not shown) [Inventive compound 1, 2-(4-Diphenylmethylpiperazinyl)-1-(4-hydroxyphenyl)ethanol.monohydrochloride]	76	3.6		inhibition at 250 mg/kg [2]: 28%; inhibition at 200 mg/kg [3, 6]: 81%; inhibition at 250 mg/kg [3, 7]: 25%; LD50 at 168 h [4]: > 2000 mg/kg
OC(CN1CCN(C(c2ccccc2)c2ccccc2)CC1)c1ccc(OCc2ccccc2)cc1 (stereo not shown) [Inventive compound 4, 1-(4-Benzyloxyphenyl)-2-(4-diphenylmethylpiperazinyl)ethanol.monohydrochloride]	90	5.8	> 2000	
OC(CN1CCN(C(c2ccccc2)c2ccccc2)CC1)c1ccc(OCc2ccccc2)cc1OCc1ccccc1 (stereo not shown) [Inventive compound 5, 1-(2,4-Dibenzyloxyphenyl)-2-(4-diphenylmethylpiperazinyl)ethanol.monohydrochloride]	62	15.3	> 2000	blood flow increase, course [1, 8]: increased in two phases; increased blood flow lasted for [1, 8]: 30 min
COc1ccc(C(O)CN2CCN(C(c3ccccc3)c3ccccc3)CC2)c(OC)c1 (stereo not shown) [Inventive compound 7, 1-(2,4-Dimethoxyphenyl)-2-(4-diphenylmethylpiperazinyl)ethanol.dihydrochloride]	123	5.8	350	
COc1ccc(C(O)CN2CCN(C(c3ccccc3)c3ccccc3)CC2)cc1OC (stereo not shown) [Inventive compound 8, 1-(3,4-Dimethoxyphenyl)-2-(4-diphenylmethylpiperazinyl)ethanol.dihydrochloride]	84	15.3	470	
COc1ccc(C(O)CN2CCN(C(c3ccccc3)c3ccccc3)CC2)c(OC)c1OC (stereo not shown) [Inventive compound 9, 2-(4-Diphenylmethylpiperazinyl)-1-(2,3,4-trimethoxyphenyl)ethanol.dihydrochloride]	124	6.1	1230	inhibition at 200 mg/kg [3, 6]: 90%
COc1cc(C(O)CN2CCN(C(c3ccccc3)c3ccccc3)CC2)cc(OC)c1OC (stereo not shown) [Inventive compound 10, 2-(4-Diphenylmethylpiperazinyl)-1-(3,4,5-trimethoxyphenyl)ethanol.monohydrochloride]	95	4.6	> 2000	
C=CCOc1ccc(C(O)CN2CCN(C(c3ccccc3)c3ccccc3)CC2)cc1 (stereo not shown) [Inventive compound 11, 1-(4-Allyloxyphenyl)-2-(4-diphenylmethylpiperazinyl)ethanol.monohydrochloride]	93	2.0	> 2000	
C=CCOc1cc(OC)ccc1C(O)CN1CCN(C(c2ccccc2)c2ccccc2)CC1 (stereo not shown) [Inventive compound 12, 1-(2-Allyloxy-4-methoxyphenyl)-2-(4-diphenylmethylpiperazinyl)ethanol.dihydrochloride]	123	7.7		
Oc1ccccc1C(O)CN1CCN(C(c2ccccc2)c2ccccc2)CC1 (stereo not shown) [compound 1, 2-(4-Diphenylmethylpiperazinyl)-1-(2-hydroxyphenyl)ethanol.monohydrochloride, reference compound]	26	1.2		
OC(CN1CCN(C(c2ccccc2)c2ccccc2)CC1)c1ccccc1 (stereo not shown) [compound 2, 2-(4-Diphenylmethylpiperazinyl)-1-phenylethanol.dihydrochloride, reference compound]	25	1.3		
CC(O)(CN1CCN(C(c2ccccc2)c2ccccc2)CC1)c1ccccc1 (stereo not shown) [compound 3, 2-(4-Diphenylmethylpiperazinyl)-1-methyl-1-phenylethanol.dihydrochloride, reference compound]	20	1.1		
CN(C)CCCOC1(Cc2ccccc2)CCCCCC1 [compound 4, Bencyclane fumarate, reference compound]	67	2.9		inhibition at 250 mg/kg [2]: 0%; inhibition at 250 mg/kg [3, 7]: 0%
C(=C\c1ccccc1)/CN1CCN(C(c2ccccc2)c2ccccc2)CC1 [compound 5, Cinnarizine, reference compound]	60	2.5		

Reference: patent US4528194A, “2-(4-Diphenylmethylpiperazinyl)-1-phenyl alkanol or their salts, a process for their production and a cerebral circulation-improving drug” (Nippon Chemiphar Co., Ltd., priority 1982, dated 1985)
